Measured values taken from the supplement of paper PMC10307832.

Legend:
Experiment in all cases: relative viability (nuclei count vs DMSO), 5 days (fraction); higher = more cells survive
Ibrutinib + Navitoclax = compound: C=CC(=O)N1CCC[C@@H](n2nc(-c3ccc(Oc4ccccc4)cc3)c3c(N)ncnc32)C1 [Ibrutinib] + CC1(C)CCC(c2ccc(Cl)cc2)=C(CN2CCN(c3ccc(C(=O)NS(=O)(=O)c4ccc(N[C@H](CCN5CCOCC5)CSc5ccccc5)c(S(=O)(=O)C(F)(F)F)c4)cc3)CC2)C1 [Navitoclax] (partner 0.5 µM)
In short: (§1)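 Dosing by pin tool came one day after lung cancer cell lines were seeded in 1536-well plates, using either one drug or a fixed anchor-drug dose plus five library-drug doses (not always all listed) in √10 steps. After 5 days, nuclei were counted on 4× images. Relative viability is treated-well nuclei count divided by vehicle-well nuclei count, and values are medians of duplicate plates.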

Ibrutinib + Alpelisib = compound: C=CC(=O)N1CCC[C@@H](n2nc(-c3ccc(Oc4ccccc4)cc3)c3c(N)ncnc32)C1 [Ibrutinib] + Cc1nc(NC(=O)N2CCC[C@H]2C(N)=O)sc1-c1ccnc(C(C)(C)C(F)(F)F)c1 [Alpelisib] (partner 2 µM)
In short: as §1

BMX-IN-1 + Vorinostat = compound: C=CC(=O)Nc1cc(-n2c(=O)ccc3cnc4ccc(-c5ccc(NS(C)(=O)=O)cc5)cc4c32)ccc1C [BMX-IN-1] + O=C(CCCCCCC(=O)Nc1ccccc1)NO [Vorinostat] (partner 1 µM)
In short: as §1

BMX-IN-1 + Olaparib = compound: C=CC(=O)Nc1cc(-n2c(=O)ccc3cnc4ccc(-c5ccc(NS(C)(=O)=O)cc5)cc4c32)ccc1C [BMX-IN-1] + O=C(c1cc(Cc2n[nH]c(=O)c3ccccc23)ccc1F)N1CCN(C(=O)C2CC2)CC1 [Olaparib] (partner 8 µM)
In short: as §1

Row | Cell Line | relative viability (Ibrutinib + Navitoclax; first compound 0.005 µM) | relative viability (Ibrutinib + Navitoclax; first compound 0.01581 µM) | relative viability (Ibrutinib + Navitoclax; first compound 0.05 µM) | relative viability (Ibrutinib + Navitoclax; first compound 0.5 µM) | relative viability (Ibrutinib + Alpelisib; first compound 0.005 µM) | relative viability (Ibrutinib + Alpelisib; first compound 0.01581 µM) | relative viability (Ibrutinib + Alpelisib; first compound 0.05 µM) | relative viability (Ibrutinib + Alpelisib; first compound 0.5 µM) | relative viability (BMX-IN-1 + Vorinostat; first compound 0.02 µM) | relative viability (BMX-IN-1 + Vorinostat; first compound 0.2 µM) | relative viability (BMX-IN-1 + Vorinostat; first compound 0.6325 µM) | relative viability (BMX-IN-1 + Vorinostat; first compound 2 µM) | relative viability (BMX-IN-1 + Olaparib; first compound 0.02 µM) | relative viability (BMX-IN-1 + Olaparib; first compound 0.2 µM) | relative viability (BMX-IN-1 + Olaparib; first compound 0.6325 µM) | relative viability (BMX-IN-1 + Olaparib; first compound 2 µM) | relative viability (Ibrutinib + Navitoclax; first compound 0.1581 µM) | relative viability (Ibrutinib + Alpelisib; first compound 0.1581 µM)
1 | NCI-H1993 | 0.807 | 0.7 | 0.75 | 0.742 | 0.644 | 0.715 | 0.613 | 0.742 | 0.767 | 0.9 | 0.85 | 0.898 | 1.21 | 1.15 | 0.913 | 1.06 | – | –
2 | EPLC-272H | – | 0.982 | 1.07 | 0.694 | – | 1.02 | 0.836 | 0.759 | 0.351 | 0.288 | 0.417 | 0.383 | 0.823 | 0.834 | 0.509 | 0.677 | 1.28 | 0.848
3 | LU99A | 0.725 | 0.684 | 0.772 | 0.664 | 0.419 | 0.449 | 0.492 | 0.496 | 0.501 | 0.421 | 0.669 | 0.612 | 0.25 | 0.259 | 0.265 | 0.229 | 0.814 | 0.499
4 | NCI-H1299 | 1.07 | 1.02 | 1.11 | 1.04 | 1.08 | 1.01 | 1.03 | 1.06 | – | – | – | – | 1.05 | 0.978 | 0.992 | 1.03 | 1.07 | 1.06
5 | HCC-78 | 0.785 | 0.746 | 0.722 | 0.566 | 0.346 | 0.315 | 0.292 | 0.24 | 0.383 | 0.438 | 0.431 | 0.41 | 1.09 | 0.744 | 0.804 | 0.913 | 0.696 | 0.391
6 | HCC-15 | 0.741 | 0.62 | 0.701 | 0.673 | 0.956 | 0.867 | 0.99 | 0.851 | 0.833 | 0.93 | 0.86 | 0.869 | 0.645 | 0.827 | 0.706 | 0.787 | 0.727 | 0.853
7 | 201T | 1.22 | 1.17 | 1.17 | 1.17 | – | 0.97 | 1.03 | 0.938 | 1.2 | 1 | 1.05 | 1.05 | 0.84 | 0.904 | 0.844 | 0.83 | 1.22 | 1
8 | LCLC-103H | – | – | – | – | 0.897 | 0.86 | 1.02 | 0.949 | 0.724 | 0.823 | 0.882 | 0.842 | 0.883 | 0.886 | 0.834 | 0.741 | – | 0.992
